According to the NIST ThermoML archive (doi:10.1016/j.jct.2012.12.015):
Numbers after ± are expanded uncertainties.

Legend:
[1] = Crystal; visual observation
[2] = xn = mol fraction of the nth substance listed; details: 101 kPa, Liquid, Pulse-echo method, x2 = 0.5

| Normal melting temperature [1] [°C] | speed of sound ([2]; 1065 K) [m/s] | speed of sound ([2]; 1071 K) [m/s] | speed of sound ([2]; 1075 K) [m/s] | SMILES |
| --- | --- | --- | --- | --- |
| 559 ± 1 |  |  |  | [Ag][I] [silver iodide] |
|  | 1360 ± 8 | 1357 ± 8 | 1354 ± 8 | [Ag][I] [silver iodide] + [Cl-].[Na+] |
| 801 ± 1 |  |  |  | [Cl-].[Na+] [sodium chloride] |
